In patent publication US8344028B2, “Gamma-amino-butyric acid derivatives as GABAB receptor ligands” (XenoPort, Inc., priority 2009, dated 2013):

What was measured:
GABAB receptor = target: T1, GABAB receptor (Rattus norvegicus, UniProt Q9Z0U4); test: [3H]CGP54626 rat brain GABAB receptor binding assay; conditions: [3H]CGP54626 rat brain binding assay
T1 construct: from tissue; host or cells: rat cerebral cortex membranes

[1] = target: T2, recombinant human GABABR1a2 (Homo sapiens, UniProt Q9UBS5); test: cAMP assay for determining GABAB receptor agonist activity; format: cell-based; conditions: cells expressing recombinant human GABABR1a2; read-out: cAMP EC50
T2 construct: expressed in transfected cells; host or cells: HEK cells
T2 sequence (Q9UBS5 15-961 limits assumed): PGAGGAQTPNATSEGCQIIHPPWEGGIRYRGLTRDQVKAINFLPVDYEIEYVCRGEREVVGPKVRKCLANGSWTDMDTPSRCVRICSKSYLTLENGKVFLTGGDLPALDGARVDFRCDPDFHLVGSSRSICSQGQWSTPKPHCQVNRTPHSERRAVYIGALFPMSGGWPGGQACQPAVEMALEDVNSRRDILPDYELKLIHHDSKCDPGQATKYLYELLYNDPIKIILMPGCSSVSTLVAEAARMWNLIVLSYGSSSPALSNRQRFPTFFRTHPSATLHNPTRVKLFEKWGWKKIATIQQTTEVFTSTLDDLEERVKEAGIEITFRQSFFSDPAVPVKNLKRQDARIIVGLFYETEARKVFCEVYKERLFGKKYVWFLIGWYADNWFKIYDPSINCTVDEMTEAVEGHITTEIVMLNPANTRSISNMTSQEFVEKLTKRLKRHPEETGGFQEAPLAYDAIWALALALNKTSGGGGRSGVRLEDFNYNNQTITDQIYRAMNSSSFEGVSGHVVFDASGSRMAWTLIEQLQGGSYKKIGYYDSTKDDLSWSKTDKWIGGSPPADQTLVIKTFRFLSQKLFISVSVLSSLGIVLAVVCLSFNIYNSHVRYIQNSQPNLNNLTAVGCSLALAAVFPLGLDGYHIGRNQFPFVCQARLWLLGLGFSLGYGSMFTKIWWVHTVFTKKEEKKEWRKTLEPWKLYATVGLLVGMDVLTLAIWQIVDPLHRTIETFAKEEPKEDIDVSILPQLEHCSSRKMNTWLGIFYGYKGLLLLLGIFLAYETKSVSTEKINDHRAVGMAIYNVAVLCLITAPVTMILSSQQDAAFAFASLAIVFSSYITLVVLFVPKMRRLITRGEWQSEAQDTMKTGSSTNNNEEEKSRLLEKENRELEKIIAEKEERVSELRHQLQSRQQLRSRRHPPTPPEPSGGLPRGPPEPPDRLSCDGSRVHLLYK
T2 sequence (O75899 42-941 partner): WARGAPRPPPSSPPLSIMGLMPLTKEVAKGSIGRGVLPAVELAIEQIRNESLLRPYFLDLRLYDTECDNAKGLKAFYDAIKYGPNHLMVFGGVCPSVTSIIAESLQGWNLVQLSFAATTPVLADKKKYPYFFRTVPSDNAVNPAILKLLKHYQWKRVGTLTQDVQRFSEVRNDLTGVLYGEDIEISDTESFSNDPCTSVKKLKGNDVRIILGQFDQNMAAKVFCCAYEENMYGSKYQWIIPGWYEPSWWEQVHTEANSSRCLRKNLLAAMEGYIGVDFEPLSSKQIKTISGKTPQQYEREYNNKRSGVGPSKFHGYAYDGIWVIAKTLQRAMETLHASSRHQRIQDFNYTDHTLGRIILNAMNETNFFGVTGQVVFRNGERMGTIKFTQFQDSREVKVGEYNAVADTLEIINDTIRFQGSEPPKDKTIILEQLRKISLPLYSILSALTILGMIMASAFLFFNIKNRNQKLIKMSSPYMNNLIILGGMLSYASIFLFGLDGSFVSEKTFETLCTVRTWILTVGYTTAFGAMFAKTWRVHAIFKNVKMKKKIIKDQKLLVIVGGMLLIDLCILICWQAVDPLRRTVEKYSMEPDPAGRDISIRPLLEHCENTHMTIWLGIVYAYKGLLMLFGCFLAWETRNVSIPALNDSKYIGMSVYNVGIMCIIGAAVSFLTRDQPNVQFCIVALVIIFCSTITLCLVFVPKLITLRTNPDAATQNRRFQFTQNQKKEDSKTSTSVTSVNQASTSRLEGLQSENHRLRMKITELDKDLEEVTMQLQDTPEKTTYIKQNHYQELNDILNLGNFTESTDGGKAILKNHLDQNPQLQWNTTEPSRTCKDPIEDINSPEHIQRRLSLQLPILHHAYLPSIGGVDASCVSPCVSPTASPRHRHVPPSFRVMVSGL

[2] = Bioavailability following oral administration to rats; conditions: rat, in vivo
Description: Rats were obtained commercially and were pre-cannulated in the jugular vein. Animals were conscious at the time of the experiment. All animals were fasted overnight and until 4 hours post-dosing of a compound.
Rat blood samples (0.3 mL/sample) were collected from all animals prior to dosing and at different time-points up to 24 h post-dose into tubes containing EDTA. Two aliquots (100 μL each) were quenched with 300 μL methanol and stored at −20° C. prior to analysis.
To prepare analysis standards, 90 μL of rat blood was quenched with 300 μL methanol followed by 10 μL of spiking standard and/or 20 μL of internal standard. The sample tubes were vortexed for at least 2 min and then centrifuged at 3400 rpm for 20 min. The supernatant was then transferred to an injection vial or plate for analysis by LC-MS-MS.
To prepare samples for analysis, 20 μL of internal standard was added to each quenched sample tube. The sample tubes were vortexed for at least 2 min and then centrifuged at 3400 rpm for 20 min. The supernatant was then transferred to an injection vial or plate for analysis by LC-MS-MS.
LC/MS/MS analysis was performed using an API 2000 or API 4000 mass spectrometer equipped with a Shimadzu and or Agilent HPLC system are used for determination concentration of compounds in rat blood. A Varian Polaris C18, 3μ 50×4.6 mm column was used. 0.1% Formic acid in water and acetonitrile were applied as the mobile phase. Runs were 4.0 min. […] L-4-Chlorophenylalanine was used as an internal standard at m/z 200.00/154.00.
Non-compartmental analysis was performed using WinNonlin software (v.3.1 Professional Version, Pharsight Corporation, Mountain View, Calif.) on individual animal profiles. […]
The oral bioavailability (F %) of a compound was determined by comparing the area under the compound concentration vs time curve (AUC) following oral administration of a prodrug of a GABAB ligand with the AUC of the compound concentration vs time curve following intravenous administration of the GABAB ligand on a dose normalized basis.

T1 sequence (Q9Z0U4 20-960): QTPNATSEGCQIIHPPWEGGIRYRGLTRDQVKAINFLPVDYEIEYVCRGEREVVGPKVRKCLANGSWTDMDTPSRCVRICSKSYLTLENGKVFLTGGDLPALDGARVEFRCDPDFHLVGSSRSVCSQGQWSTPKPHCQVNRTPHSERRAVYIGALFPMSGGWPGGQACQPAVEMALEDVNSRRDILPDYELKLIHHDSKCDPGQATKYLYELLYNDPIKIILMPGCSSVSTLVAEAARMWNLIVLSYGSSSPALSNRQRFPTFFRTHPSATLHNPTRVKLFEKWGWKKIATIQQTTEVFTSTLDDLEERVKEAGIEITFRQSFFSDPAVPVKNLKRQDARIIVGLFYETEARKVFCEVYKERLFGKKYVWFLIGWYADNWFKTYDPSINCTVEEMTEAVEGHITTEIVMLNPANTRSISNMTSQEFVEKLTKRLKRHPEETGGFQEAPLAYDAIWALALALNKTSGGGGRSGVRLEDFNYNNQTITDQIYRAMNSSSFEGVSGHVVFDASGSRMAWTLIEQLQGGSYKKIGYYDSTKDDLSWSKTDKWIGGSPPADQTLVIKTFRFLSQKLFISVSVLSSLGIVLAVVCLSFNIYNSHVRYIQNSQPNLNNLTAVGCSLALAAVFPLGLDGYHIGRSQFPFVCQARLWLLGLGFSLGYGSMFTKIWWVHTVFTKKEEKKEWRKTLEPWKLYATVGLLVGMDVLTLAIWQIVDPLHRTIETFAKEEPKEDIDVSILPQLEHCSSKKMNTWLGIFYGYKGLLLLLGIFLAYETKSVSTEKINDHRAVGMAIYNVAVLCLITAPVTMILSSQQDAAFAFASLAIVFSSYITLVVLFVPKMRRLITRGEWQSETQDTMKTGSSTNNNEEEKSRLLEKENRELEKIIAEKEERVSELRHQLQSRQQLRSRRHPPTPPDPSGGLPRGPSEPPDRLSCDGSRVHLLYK
T1 sequence (O88871 41-940 partner): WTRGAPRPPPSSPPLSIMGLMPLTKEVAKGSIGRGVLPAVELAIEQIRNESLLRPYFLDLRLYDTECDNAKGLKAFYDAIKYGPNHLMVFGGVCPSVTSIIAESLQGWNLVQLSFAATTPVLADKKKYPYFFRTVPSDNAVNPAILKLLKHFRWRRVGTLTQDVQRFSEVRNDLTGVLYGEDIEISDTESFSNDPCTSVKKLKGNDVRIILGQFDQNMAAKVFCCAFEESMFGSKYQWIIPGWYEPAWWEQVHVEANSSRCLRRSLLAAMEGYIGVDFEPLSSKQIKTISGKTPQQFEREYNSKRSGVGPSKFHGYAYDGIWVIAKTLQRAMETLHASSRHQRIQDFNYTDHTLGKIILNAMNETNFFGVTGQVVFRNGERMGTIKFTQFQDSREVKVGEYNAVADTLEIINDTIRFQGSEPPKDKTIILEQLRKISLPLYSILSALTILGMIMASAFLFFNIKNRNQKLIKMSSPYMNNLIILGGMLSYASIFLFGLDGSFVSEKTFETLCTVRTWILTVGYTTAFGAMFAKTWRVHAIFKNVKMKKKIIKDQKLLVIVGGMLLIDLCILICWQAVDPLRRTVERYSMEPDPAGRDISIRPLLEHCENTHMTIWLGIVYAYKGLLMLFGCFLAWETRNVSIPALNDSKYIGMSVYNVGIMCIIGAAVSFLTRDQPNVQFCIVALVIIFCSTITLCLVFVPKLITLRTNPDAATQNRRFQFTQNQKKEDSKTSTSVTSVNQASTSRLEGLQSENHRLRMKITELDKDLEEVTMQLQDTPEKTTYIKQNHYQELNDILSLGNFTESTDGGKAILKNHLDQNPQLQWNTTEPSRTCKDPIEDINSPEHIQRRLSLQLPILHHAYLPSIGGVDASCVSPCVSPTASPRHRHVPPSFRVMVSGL

IC50 (GABAB receptor): < 25 µM | EC50 [1]: < 0.1 µM | oral bioavailability (F %) [2]: greater than 10%
SMILES: Cl.NC[C@H](CC(=O)O)c1ccc(Cl)c(OCc2ccncc2)c1 [Example 68, (3R)-4-Amino-3-[4-chloro-3-(4-pyridylmethoxy)phenyl]butanoic acid hydrochloride]
